Data set [1] relates to aconitine-induced arrhythmias. Description: in vivo antagonism of aconitine-induced arrhythmias. More on the design: species or system male rats. Conditions: for % protection: vs control; for Dose of aconitine inducing arrhythmias: aconitine infusion 5 μg/kg/min. The protocol:
This test was carried out in male rats under urethane anaesthesia as described by B. Vargaftig and J. L. Coignet, Eur. J. Pharmacol., 6, 49 (1969). It was estimated what dose of aconitine in an i.v. infusion (5 μ g/kg/min, rate 0.2 ml/min) would induce arrhythmias. Three minutes before the infusion physiological saline with or without test compound was injected i.v.

The target of the next data set is T1, cardiac β-receptors (Cavia porcellus, UniProt H0W3H1).
T1 construct: on the isolated, spontaneously beating, right atrium of the guinea pig; from tissue; host or cells: guinea pig right atrium (isolated, spontaneously beating)
Description: antagonism to cardiac β-receptors on isolated, spontaneously beating right atrium (isoprenaline chronotropism, pA2). Particulars: isolated right atrium guinea pig, vs isoprenaline; R = isopropyl for A-E.

For data set [2], the target named is T2, β-adrenergic (guinea pig tracheal chain) (Cavia porcellus, UniProt Q8K4Z4).
T2 construct: determined on the guinea pig tracheal chain; from tissue; host or cells: guinea pig tracheal chain (isolated)
Kind of data set: β-adrenergic blocking activity on guinea pig tracheal chain (antagonism of isoprenaline relaxation, pA2). Particulars: vs isoprenaline, R = isopropyl for A-E. The protocol:
The β-adrenergic blocking activity was determined on the guinea pig tracheal chain prepared as described by H. Timmerman and N. G. Scheffer, J. Pharm. […] Int. Pharmacodyn. […] The pA2-values were calculated according to Van Rossum from the parallel shift to the right of the log dose - response curves.

Data set [3] deals with right atrial muscles from guinea pigs. Kind of data set: anti-arrhythmic activity in vitro, ouabain-induced arrhythmia in right atrial muscles. More on the design: species or system guinea pig. Conditions: Cavia porcellus; minimal drug concentration (M) preventing any arrhythmia, ouabain 0.5 μg/ml, 37° C, pH 7.4; read-out: Antiarrh. act. -log min. dose (converted). The procedure:
The anti-arrhythmic activity in vitro was determined as follows. Right atrial muscles from guinea pigs were dissected and freed from the appendage. They were suspended in 100 ml of a modified Ringer-Locke solution (g/l: […] Spontaneous contractions were recorded on a Schwarzer ECG (Cardioscript III) using an […] Transducer (8101) in a Wheatstone bridge circuit. Tension was so adjusted that contractions reached maximal amplitude while keeping distortion of the baseline minimal. After a 40-min equilibrium period the test compound was added and for 30 minutes contractile force and rate were recorded at 1-min intervals for 10 seconds. Next, ouabain was added in a concentration of 0.5 μg/ml and force and rate were measured at 1-min intervals over a 60-min period. […] This was confirmed at least once. Control experiments without test compounds were carried out daily.

Data set [4] in a line: hygroscopicity (observation in the synthesis example). In kind it is physicochemical. Conditions: dihydrochloride.

Where a name gives a salt, the structure may show the parent alone.

T2 sequence (Q8K4Z4 whole entry): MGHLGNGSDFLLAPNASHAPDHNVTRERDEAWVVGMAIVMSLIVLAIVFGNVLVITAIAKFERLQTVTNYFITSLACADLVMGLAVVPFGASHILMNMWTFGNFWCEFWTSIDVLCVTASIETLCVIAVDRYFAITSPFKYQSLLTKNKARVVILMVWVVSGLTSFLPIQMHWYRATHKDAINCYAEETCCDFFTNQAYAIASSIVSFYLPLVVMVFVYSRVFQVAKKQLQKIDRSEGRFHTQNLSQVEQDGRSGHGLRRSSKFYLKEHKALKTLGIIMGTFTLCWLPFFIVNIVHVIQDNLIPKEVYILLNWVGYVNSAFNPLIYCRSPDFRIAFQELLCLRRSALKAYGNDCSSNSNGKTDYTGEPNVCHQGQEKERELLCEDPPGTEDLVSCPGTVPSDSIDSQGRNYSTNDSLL
T1 sequence (H0W3H1 1-470): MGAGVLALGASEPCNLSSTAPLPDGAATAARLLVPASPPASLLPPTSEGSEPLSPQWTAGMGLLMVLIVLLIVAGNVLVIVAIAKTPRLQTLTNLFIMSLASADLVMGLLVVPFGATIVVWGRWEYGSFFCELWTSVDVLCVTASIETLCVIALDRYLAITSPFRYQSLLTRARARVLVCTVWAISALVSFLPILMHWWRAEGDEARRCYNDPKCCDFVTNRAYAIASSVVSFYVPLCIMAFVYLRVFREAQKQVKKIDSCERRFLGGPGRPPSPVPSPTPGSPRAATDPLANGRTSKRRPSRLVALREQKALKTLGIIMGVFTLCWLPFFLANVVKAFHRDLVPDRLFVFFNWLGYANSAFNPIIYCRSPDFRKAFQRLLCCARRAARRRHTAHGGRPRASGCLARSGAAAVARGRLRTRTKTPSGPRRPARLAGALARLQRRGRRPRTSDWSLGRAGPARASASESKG

On to `CC(C)NCC(O)COc1ccccc1OCC(O)CNC(C)C` (stereo not shown) [A, 1,1'-(o-phenylenedioxy)-bis-[3-(isoproyl-amino)propan-2-ol] dihydrochloride], for which the “% protection” value in data set [1] (4 mg/kg i.v.) is 12.9%; in data set [1] (8 mg/kg i.v.), 35.5%; in data set [1] (16 mg/kg i.v.), 110.8%. The results for the “Dose of aconitine inducing arrhythmias” value in data set [1] (test compound 4 mg/kg i.v.), in data set [1] (test compound 8 mg/kg i.v.) and in data set [1] (test compound 16 mg/kg i.v.) were 31.5 µg/kg, 37.8 µg/kg and 58.8 µg/kg, respectively. The Kb on cardiac β-receptors was 324 nM. The pA2 trachea in data set [2] was 6.73 (±0.05). Further, the minimal effective concentration in data set [3] is 0.0002 M.

Consider `Cc1cccc(OCC(O)CNC(C)C)c1OCC(O)CNC(C)C.Cl.Cl` (stereo not shown) [B, 1,1'-[(3-methyl-o-phenylene)dioxy]-bis-[3-(isopropylamino)propan-2-ol] dihydrochloride], for which the Kb on cardiac β-receptors was 3310 nM. Further, in data set [2], the pA2 trachea is reported as 5.80 (±0.08). Further, in data set [3], the minimal effective concentration was 2e-05 M.

With `CC(C)NCC(O)COc1cccc(C(C)C)c1OCC(O)CNC(C)C` (stereo not shown) [C, 1,1'-[(3-isopropyl-o-phenylene)dioxy]-bis-[3-(isopropylamino)-propan-2-ol]dihydrochloride], the “% protection” value in data set [1] (0.5 mg/kg i.v.) is 44.0%; in data set [1] (1.0 mg/kg i.v.), 79.6%; in data set [1] (2.0 mg/kg i.v.), 135.5%. In addition, the “Dose of aconitine inducing arrhythmias” value was 45.8 µg/kg in data set [1] (test compound 0.5 mg/kg i.v.), 57.1 µg/kg in data set [1] (test compound 1.0 mg/kg i.v.) and 74.9 µg/kg in data set [1] (test compound 2.0 mg/kg i.v.). At cardiac β-receptors, the Kb is 25700 nM. For the same compound, the pA2 trachea in data set [2] is 5.35 (±0.11). In addition, the minimal effective concentration in data set [3] was 1e-05 M.

At cardiac β-receptors, `Cc1ccc(OCC(O)CNC(C)C)c(OCC(O)CNC(C)C)c1.Cl.Cl` (stereo not shown) [D, 1,1'-[(4-methyl-o-phenylene)dioxy]-bis-[3-(isopropylamino)-propan-2-ol] dihydrochloride] showed a Kb of 603 nM. Besides, the pA2 trachea in data set [2] was 6.66 (±0.09). Also, in data set [3], the minimal effective concentration was 5.01e-05 M.

As to `CC(C)NCC(O)COc1ccc(C(C)C)cc1OCC(O)CNC(C)C.Cl.Cl` (stereo not shown) [E, 1,1'-[(4-isopropyl-o-phenylene)dioxy]-bis-[3-(isopropylamino)-propan-2-ol] dihydrochloride], on cardiac β-receptors, the Kb is 2290 nM. The pA2 trachea in data set [2] is 6.48 (±0.09). The minimal effective concentration in data set [3] is 2e-05 M. For the same compound, the hygroscopicity entry in data set [4] was “very hydroscopic”.

With `CC(C)(C)NCC(O)COc1ccccc1OCC(O)CNC(C)(C)C` (stereo not shown) [F, 1,1'-(o-phenylenedioxy)-bis-[3-(tert.-butylamino)-propan-2-ol]dihydrochloride], the entries for the “% protection” value in data set [1] (4 mg/kg i.v.), in data set [1] (8 mg/kg i.v.) and in data set [1] (16 mg/kg i.v.) were 41.7%, 104.2% and 158.6%, respectively. The “Dose of aconitine inducing arrhythmias” value in data set [1] (test compound 4 mg/kg i.v.) amounted to 34 µg/kg; in data set [1] (test compound 8 mg/kg i.v.) it was 49 µg/kg; in data set [1] (test compound 16 mg/kg i.v.), 62 µg/kg.

With `CC(C)NCC(O)COc1ccccc1` (stereo not shown) [G, 1-(isopropylamino)-3-phenoxy-2-propanol, reference compound], the Kb on cardiac β-receptors is 0.977 nM; in data set [2] (read-out: pA2 trachea (converted)), 24.5 nM. In data set [3], the minimal effective concentration was 0.000302 M.

(Values after US3998874A, “Phenylene di-ethers” (Gist-Brocades N.V., priority 1974, dated 1976).)
